Patent publication US20100215579A1, “PHEN-NAPHTHALENE AND PHEN-QUINOLINE DERIVATIVES AND THEIR USE FOR BINDING AND IMAGING AMYLOID PLAQUES” (The Trustees of the University of Pennsylvania, priority 2007, published 2010)

Experiments:
amyloid plaques = molecular target: T1, amyloid plaques (Homo sapiens, UniProt P05067); test: Ki values of Phen-Nap, Nap-Phen derivatives (Ki binding data)
T1 construct: fibrillary Aβ plaques consisting predominately of aggregates of Aβ40 and Aβ42 peptides

[1] = Log P (octanol/Na2HPO4 buffer pH 7.4); type: physicochemical; conditions: pH 7.4
[2] = Biodistribution in ICR mice after an iv injection; type: in vivo
From the text: Biodistribution in ICR Mice After an iv Injection of [^18F][4-(6-{2-[2-(2-Fluoro-ethoxy)-ethoxy]-ethoxy}-naphthalen-2-yl)-phenyl]-methyl-amine in 1% EtOH/0.1% BSA in Water
(% dose/organ, avg of 3 mice±SD)
(% dose/g, avg of 3 mice±SD)
Biodistribution in ICR Mice After an iv Injection of [^18F]19a in 3% EtOH/0.1% BSA in Water
Biodistribution in ICR Mice After an iv Injection of [^18F]34a in 5% EtOH/0.1% BSA in Water
Biodistribution in ICR Mice After an iv Injection of [^18F]32a in 1% EtOH/0.1% BSA in Water

[3] = Blood, 2 min after iv injection
[4] = Blood, 30 min after iv injection
[5] = Bone, 30 min after iv injection
[6] = Brain, 2 min after iv injection
[7] = Brain, 30 min after iv injection
[8] = Heart, 2 min after iv injection
[9] = Heart, 30 min after iv injection
[10] = Kidney, 2 min after iv injection
[11] = Kidney, 30 min after iv injection
[12] = Kidney, 1 hr after iv injection
[13] = Kidney, 2 hr after iv injection
[14] = Liver, 2 min after iv injection
[15] = Liver, 30 min after iv injection
[16] = Lung, 30 min after iv injection
[17] = Muscle, 2 min after iv injection
[18] = Muscle, 30 min after iv injection
[19] = Muscle, 1 hr after iv injection
[20] = Muscle, 2 hr after iv injection
[21] = Skin, 30 min after iv injection
[22] = Spleen, 2 min after iv injection
[23] = Spleen, 30 min after iv injection
[24] = Spleen, 1 hr after iv injection
[25] = Spleen, 2 hr after iv injection

T1 sequence (P05067 672-713 limits assumed): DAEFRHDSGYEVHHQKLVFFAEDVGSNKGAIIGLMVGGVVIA
T1 sequence (P05067 672-711 limits assumed): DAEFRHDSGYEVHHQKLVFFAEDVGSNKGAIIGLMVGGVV

Nc1ccc(-c2ccc3cc(OCCOCCOCCF)ccc3c2)cc1 [Compound 11a, 4-(6-(2-(2-(2-fluoroethoxy)ethoxy)ethoxy)naphthalen-2-yl)benzenamine]
Ki (amyloid plaques): 12.5 ± 1.2 nM

Nc1ccc(-c2ccc3cc(OCCOCCOCCO)ccc3c2)cc1 [Compound 11b, 2-(2-(2-(6-(4-aminophenyl)naphthalen-2-yloxy)ethoxy)ethoxy)ethanol]
Ki (amyloid plaques): 22 nM

CN(C)c1ccc(-c2ccc3cc(OCCOCCOCCF)ccc3c2)cc1 [Compound 12a, 4-(6-(2-(2-(2-fluoroethoxy)ethoxy)ethoxy)naphthalen-2-yl)-N,N-dimethylbenzenamine]
Ki (amyloid plaques): 3.1 nM

CNc1ccc(-c2ccc3cc(OCCOCCOCCO)ccc3c2)cc1 [Compound 13b, 2-(2-(2-(6-(4-(methylamino)phenyl)naphthalen-2-yloxy)ethoxy)ethoxy)ethanol]
Ki (amyloid plaques): 1 nM

Nc1ccc2cc(-c3ccc(O)cc3)ccc2c1 [Compound 16, 4-(6-aminonaphthalen-2-yl)phenol]
Ki (amyloid plaques): 33.5 ± 11 nM

Nc1ccc2cc(-c3ccc(OCCOCCOCCF)cc3)ccc2c1 [Compound 17a, 6-(4-(2-(2-(2-fluoroethoxy)ethoxy)ethoxy)phenyl)naphthalen-2-amine]
Ki (amyloid plaques): 20 ± 5 nM

Nc1ccc2cc(-c3ccc(OCCOCCOCCO)cc3)ccc2c1 [Compound 17b, 2-(2-(2-(4-(6-aminonaphthalen-2-yl)phenoxy)ethoxy)ethoxy)ethanol]
Ki (amyloid plaques): 27 nM

CN(C)c1ccc2cc(-c3ccc(OCCOCCOCCF)cc3)ccc2c1 [Compound 18a, 6-(4-(2-(2-(2-fluoroethoxy)ethoxy)ethoxy)phenyl)-N,N-dimethylnaphthalen-2-amine]
Ki (amyloid plaques): 5.6 nM

CN(C)c1ccc2cc(-c3ccc(OCCOCCOCCO)cc3)ccc2c1 [Compound 18b, 2-(2-(2-(4-(6-(dimethylamino)naphthalen-2-yl)phenoxy)ethoxy)ethoxy)ethanol]
Ki (amyloid plaques): 6.5 nM

CNc1ccc2cc(-c3ccc(OCCOCCOCCF)cc3)ccc2c1 [Compound 19a, 6-(4-(2-(2-(2-fluoroethoxy)ethoxy)ethoxy)phenyl)-N-methylnaphthalen-2-amine]
Ki (amyloid plaques): 3 nM

CNc1ccc2cc(-c3ccc(OCCOCCOCCO)cc3)ccc2c1 [Compound 19b, 2-(2-(2-(4-(6-(methylamino)naphthalen-2-yl)phenoxy)ethoxy)ethoxy)ethanol]
Ki (amyloid plaques): 6 nM

COc1ccc(-c2ccc3cc(N(C)C)ccc3c2)cc1 [Compound 23, 6-(4-methoxyphenyl)-N,N-dimethylnaphthalen-2-amine]
Ki (amyloid plaques): 1.4 nM

CN(C)c1ccc2cc(-c3ccc(O)cc3)ccc2c1 [Compound 24, 4-(6-(dimethylamino)naphthalen-2-yl)phenol]
Ki (amyloid plaques): 4.2 nM

COc1ccc(-c2ccc3cc(O)ccc3c2)cc1 [Compound 25, 6-(4-methoxyphenyl)naphthalen-2-ol]
Ki (amyloid plaques): 1.5 nM

Oc1ccc(-c2ccc3cc(OCCOCCOCCF)ccc3c2)cc1 [Compound 26, 4-(6-(2-(2-(2-fluoroethoxy)ethoxy)ethoxy)naphthalen-2-yl)phenol]
Ki (amyloid plaques): 16.5 nM

Oc1ccc2cc(-c3ccc(OCCOCCOCCF)cc3)ccc2c1 [Compound 28, 6-(4-(2-(2-(2-fluoroethoxy)ethoxy)ethoxy)phenyl)naphthalen-2-ol]
Ki (amyloid plaques): 16 nM

CN(C)c1ccc(-c2ccc3nc(OCCOCCOCCF)ccc3c2)cc1 [Compound 32a, 4-(2-(2-(2-(2-fluoroethoxy)ethoxy)ethoxy)quinolin-6-yl)-N,N-dimethylbenzenamine]
Ki (amyloid plaques): 4.4 nM

CN(C)c1ccc(-c2ccc3nc(OCCOCCOCCO)ccc3c2)cc1 [Compound 32b, 2-(2-(2-(6-(4-(dimethylamino)phenyl)quinolin-2-yloxy)ethoxy)ethoxy)ethanol]
Ki (amyloid plaques): 4.7 nM

Nc1ccc(-c2ccc3nc(OCCOCCOCCF)ccc3c2)cc1 [Compound 33a, 4-(2-(2-(2-(2-fluoroethoxy)ethoxy)ethoxy)quinolin-6-yl)benzenamine]
Ki (amyloid plaques): 102 ± 32 nM

Nc1ccc(-c2ccc3nc(OCCOCCOCCO)ccc3c2)cc1 [Compound 33b, 2-(2-(2-(6-(4-aminophenyl)quinolin-2-yloxy)ethoxy)ethoxy)ethanol]
Ki (amyloid plaques): 109 nM

CNc1ccc(-c2ccc3nc(OCCOCCOCCF)ccc3c2)cc1 [Compound 34a, 4-(2-(2-(2-(2-fluoroethoxy)ethoxy)ethoxy)quinolin-6-yl)-N-methylbenzenamine]
Ki (amyloid plaques): 5.5 nM

CNc1ccc(-c2ccc3nc(OCCOCCOCCO)ccc3c2)cc1 [Compound 34b, 2-(2-(2-(6-(4-(methylamino)phenyl)quinolin-2-yloxy)ethoxy)ethoxy)ethanol]
Ki (amyloid plaques): 5 nM

CNc1ccc2cc(-c3ccc(OCCOCCOCC[18F])cc3)ccc2c1 [[^18F]19a]
Log P [1]: 2.60 | % dose/g [2, 3]: 6.66 ± 0.86 % dose/g | % dose/organ [2, 3]: 11.1 ± 0.91 % dose/organ | % dose/g [2, 4]: 4.15 ± 0.59 % dose/g | % dose/organ [2, 4]: 6.94 ± 0.59 % dose/organ | % dose/g ([2]; Blood, 1 hr after iv injection): 3.14 ± 0.37 % dose/g | % dose/organ ([2]; Blood, 1 hr after iv injection): 4.94 ± 0.09 % dose/organ | % dose/g ([2]; Blood, 2 hr after iv injection): 3.05 ± 0.26 % dose/g | % dose/organ ([2]; Blood, 2 hr after iv injection): 5.19 ± 0.14 % dose/organ | % dose/g ([2]; Bone, 2 min after iv injection): 1.32 ± 0.18 % dose/g | % dose/organ ([2]; Bone, 2 min after iv injection): 4.42 ± 0.82 % dose/organ | % dose/g [2, 5]: 0.78 ± 0.10 % dose/g | % dose/organ [2, 5]: 2.59 ± 0.17 % dose/organ | % dose/g ([2]; Bone, 1 hr after iv injection): 0.82 ± 0.21 % dose/g | % dose/organ ([2]; Bone, 1 hr after iv injection): 2.60 ± 0.41 % dose/organ | % dose/g ([2]; Bone, 2 hr after iv injection): 1.37 ± 0.15 % dose/g | % dose/organ ([2]; Bone, 2 hr after iv injection): 4.67 ± 0.26 % dose/organ | % dose/g [2, 6]: 5.55 ± 0.77 % dose/g | % dose/organ [2, 6]: 2.51 ± 0.29 % dose/organ | % dose/g [2, 7]: 1.29 ± 0.19 % dose/g | % dose/organ [2, 7]: 0.59 ± 0.07 % dose/organ | % dose/g ([2]; Brain, 1 hr after iv injection): 1.05 ± 0.20 % dose/g | % dose/organ ([2]; Brain, 1 hr after iv injection): 0.48 ± 0.06 % dose/organ | % dose/g ([2]; Brain, 2 hr after iv injection): 0.92 ± 0.10 % dose/g | % dose/organ ([2]; Brain, 2 hr after iv injection): 0.42 ± 0.06 % dose/organ | % dose/g [2, 8]: 5.67 ± 0.42 % dose/g | % dose/organ [2, 8]: 0.63 ± 0.02 % dose/organ | % dose/g [2, 9]: 1.74 ± 0.19 % dose/g | % dose/organ [2, 9]: 0.21 ± 0.02 % dose/organ | % dose/g ([2]; Heart, 1 hr after iv injection): 1.69 ± 0.35 % dose/g | % dose/organ ([2]; Heart, 1 hr after iv injection): 0.18 ± 0.01 % dose/organ | % dose/g ([2]; Heart, 2 hr after iv injection): 1.40 ± 0.08 % dose/g | % dose/organ ([2]; Heart, 2 hr after iv injection): 0.16 ± 0.01 % dose/organ | % dose/g [2, 10]: 7.88 ± 0.94 % dose/g | % dose/organ [2, 10]: 3.06 ± 0.21 % dose/organ | % dose/g [2, 11]: 3.61 ± 0.98 % dose/g | % dose/organ [2, 11]: 1.38 ± 0.26 % dose/organ | % dose/g [2, 12]: 3.82 ± 1.54 % dose/g | % dose/organ [2, 12]: 1.37 ± 0.25 % dose/organ | % dose/g [2, 13]: 2.41 ± 0.42 % dose/g | % dose/organ [2, 13]: 0.88 ± 0.12 % dose/organ | % dose/g [2, 14]: 27.0 ± 0.91 % dose/g | % dose/organ [2, 14]: 32.0 ± 1.81 % dose/organ | % dose/g [2, 15]: 21.5 ± 2.08 % dose/g | % dose/organ [2, 15]: 25.7 ± 0.95 % dose/organ | % dose/g ([2]; Liver, 1 hr after iv injection): 14.1 ± 1.85 % dose/g | % dose/organ ([2]; Liver, 1 hr after iv injection): 15.7 ± 1.34 % dose/organ | % dose/g ([2]; Liver, 2 hr after iv injection): 8.85 ± 0.76 % dose/g | % dose/organ ([2]; Liver, 2 hr after iv injection): 10.6 ± 0.65 % dose/organ | % dose/g ([2]; Lung, 2 min after iv injection): 9.19 ± 1.18 % dose/g | % dose/organ ([2]; Lung, 2 min after iv injection): 1.76 ± 0.20 % dose/organ | % dose/g [2, 16]: 3.44 ± 0.49 % dose/g | % dose/organ [2, 16]: 0.67 ± 0.05 % dose/organ | % dose/g ([2]; Lung, 1 hr after iv injection): 2.68 ± 0.48 % dose/g | % dose/organ ([2]; Lung, 1 hr after iv injection): 0.41 ± 0.07 % dose/organ | % dose/g ([2]; Lung, 2 hr after iv injection): 2.48 ± 0.48 % dose/g | % dose/organ ([2]; Lung, 2 hr after iv injection): 0.45 ± 0.11 % dose/organ | % dose/g [2, 17]: 0.77 ± 0.14 % dose/g | % dose/organ [2, 17]: 7.42 ± 1.87 % dose/organ | % dose/g [2, 18]: 0.75 ± 0.09 % dose/g | % dose/organ [2, 18]: 7.22 ± 0.42 % dose/organ | % dose/g [2, 19]: 0.87 ± 0.03 % dose/g | % dose/organ [2, 19]: 7.86 ± 0.68 % dose/organ | % dose/g [2, 20]: 0.62 ± 0.11 % dose/g | % dose/organ [2, 20]: 6.02 ± 0.62 % dose/organ | % dose/g ([2]; Skin, 2 min after iv injection): 0.70 ± 0.04 % dose/g | % dose/organ ([2]; Skin, 2 min after iv injection): 2.51 ± 0.07 % dose/organ | % dose/g [2, 21]: 1.37 ± 0.11 % dose/g | % dose/organ [2, 21]: 4.93 ± 0.08 % dose/organ | % dose/g ([2]; Skin, 1 hr after iv injection): 1.32 ± 0.18 % dose/g | % dose/organ ([2]; Skin, 1 hr after iv injection): 4.46 ± 0.05 % dose/organ | % dose/g ([2]; Skin, 2 hr after iv injection): 0.77 ± 0.13 % dose/g | % dose/organ ([2]; Skin, 2 hr after iv injection): 2.81 ± 0.29 % dose/organ | % dose/g [2, 22]: 6.94 ± 0.99 % dose/g | % dose/organ [2, 22]: 0.79 ± 0.29 % dose/organ | % dose/g [2, 23]: 5.03 ± 1.18 % dose/g | % dose/organ [2, 23]: 0.53 ± 0.04 % dose/organ | % dose/g [2, 24]: 3.60 ± 0.15 % dose/g | % dose/organ [2, 24]: 0.30 ± 0.00 % dose/organ | % dose/g [2, 25]: 3.38 ± 0.52 % dose/g | % dose/organ [2, 25]: 0.31 ± 0.02 % dose/organ
